Laboratory results: patent publication US20020156115A1, “Insecticidal and acaricidal composition, and methods of using the same” (AGRO-KANESHO CO., LTD., priority 1999, published 2002)

Experiments:
Format in all cases: in vivo
[1] = tested on: eggs of two-spotted red spiders (Tetranychus telarius); experiment: Acaricidal effect on eggs of two-spotted red spiders, ovicidal rate, 500 ppm spray; conditions: eggs on green bean leaf disc; spray 3.5 ml; concentration 500 ppm; 8 days after treatment
Method: Acaricidal Effect on Eggs of Two-Spotted Red Spiders (Tetranychus telarius) 5 female imagoes of two-spotted red spiders were released on a green been leaf disc (diameter: 3 cm). Then, the imagoes were left to lay eggs on the leaf disc for 20 hours and then removed therefrom. The present acaricide which had been prepared according to Preparation Example 1 was diluted with water to a predetermined concentration. 3.5 ml of the preparation thus obtained was sprayed with a rotary spraying column (Mizuho Rika) over the disc (concentration: 500 ppm, repetition: twice). 8 days after the treatment, the number of unhatched eggs was counted to determine the ovicidal rate (%).

[2] = tested on: diamond backmoth (Plutella xylostera); experiment: Insecticidal effect on larvae of diamond backmoth (cabbage leaf dip); conditions: 500 ppm; cabbage leaf immersed 1 minute; third-instar larvae; fourth day; 25° C.
Method: Insecticidal Effect on Larvae of Diamond Backmoth (Plutella xylostera) The present insecticide prepared according to the Preparation Example was diluted with water. A piece (diameter: 6 cm) of a cabbage leaf was immersed in the diluted insecticide for 1 minute. After air drying, the piece was placed in a plastic cup (inner diameter: 7 cm). 5 third-instar larvae of diamond backmoth (Plutella xylostera) were put in the cup (1 concentration, repetition: twice). The cup was kept in a constant temperature room at 25° C. On the fourth day, the survival rate and degree of writhing of the larvae were examined. The writhing larvae were each counted to be ½.

[3] = tested on: two-spotted red spiders (Tetranychus telarius); experiment: Acaricidal effect on two-spotted red spiders, imago-killing rate, 500 ppm leaf immersion; conditions: female imagoes on green bean leaf, leaf immersion about 5 seconds, concentration 500 ppm, fifth day after treatment, 25° C.
Method: (§1) Acaricidal Effect on Larvae of Two-Spotted Red Spiders (Tetranychus telarius): A stem of green bean seedling having only one primary left was placed in a test tube (capacity: 50 ml) containing water. 15 female imagoes of two-spotted red spiders were put on each leaf. One day after, the leaf having the two-spotted red spiders was immersed (about 5 seconds) in the present insecticide diluted with water, which had been prepared according to the Preparation Example, (concentration: 500 ppm, repetition: twice). They were kept in a constant-temperature room at 25° C. On the fifth day after the treatment, the female imagoes on the leaf of the green bean seedling were observed. The imago-killing rate (%) was determined on the basis of the results of the observation to obtain the results shown in Table 6.

[4] = tested on: two-spotted red spiders (Tetranychus telarius); experiment: Acaricidal effect of a low concentration (12.5 ppm) on two-spotted red spiders; conditions: leaf immersion, female imagoes, fifth day after treatment, 25° C.
Method: as §1, with “A” for “Acaricidal Effect on Larvae of Two-Spotted Red Spiders (Tetranychus telarius): A”
Acaricidal Effect of a Low Concentration of Acaricide on Larvae of Two-Spotted Red Spiders (Tetranychus telarius)
The same tests as those of Test Example 2 were repeated except that the concentration of the acaricide was changed to 12.5 ppm.

Compound | Ovicidal rate (%) [1] | Killing rate [2] | Acaricidal rate (%) [3] | acaricidal effect [4]
CO/C=C(/C(=O)OC)c1c(OCc2ccc(C(F)(F)F)cc2)c(C)nn1C [Table 2-5] | 100% | 90% | 100% | –
CCc1nn(C)c(/C(=N\OC)C(=O)OC)c1CON=C(C)c1cccc(OC(F)F)c1 [Table 3-76] | – | 100% | – | –
CCn1nc(C)c(C#Cc2cc(C(F)(F)F)cc(C(F)(F)F)c2)c1C(=COC)C(=O)OC [Table 1-21, Methyl α-[1-ethyl-3-methyl-4-{3,5-bis(trifluoromethyl)phenylethynyl}-5-pyrazole]-β-methoxyacrylate] | 100% | 100% | 100% | 100%
COC=C(C(=O)OC)c1c(C#Cc2cc(C(F)(F)F)cc(C(F)(F)F)c2)c(C)nn1C [Table 1-5, Methyl α-[1,3-dimethyl-4-{3,5-bis(trifluoromethyl)phenylethynyl}-5-pyrazole]-β-methoxyacrylate] | 100% | 100% | 100% | 100%
CO/C=C(/C(=O)OC)c1c(OCc2ccc(C(C)(C)C)cc2)c(C)nn1C [Table 2-4] | 100% | 70% | 100% | –
CO/C=C(/C(=O)OC)c1c(C#Cc2ccc(Oc3ccc(F)cc3Cl)cc2)c(C)nn1C [Table 1-12] | 100% | 100% | 100% | 100%
CO/C=C(/C(=O)OC)c1c(C#Cc2ccc(OC(F)(F)F)cc2)c(C)nn1C [Table 1-29] | 100% | 85% | 100% | 100%
CO/C=C(/C(=O)OC)c1c(OCc2cccc(Oc3ccc(C(F)(F)F)cc3)c2)c(C)nn1C [Table 2-3] | 100% | 100% | 100% | –
CO/C=C(/C(=O)OC)c1c(C#Cc2ccc(Oc3ccc(C(F)(F)F)cc3)cc2)c(C)nn1C [Table 1-10] | 100% | 100% | 100% | 100%
CO/C=C(/C(=O)OC)c1c(C#Cc2cc(F)cc(F)c2)c(C)nn1C [Table 1-8] | 100% | 100% | 100% | 100%
CCn1nc(C(F)(F)F)c(C#Cc2cc(C(F)(F)F)cc(C(F)(F)F)c2)c1/C(=C\OC)C(=O)OC [Table 1-39] | 100% | – | 100% | 100%
CO/C=C(/C(=O)OC)c1c(C#Cc2cc(C(F)(F)F)cc(C(F)(F)F)c2)c(C(C)C)nn1C [Table 1-17] | 100% | 89% | 100% | 100%
CO/C=C(/C(=O)OC)c1c(C#Cc2cc(Cl)cc(Cl)c2)c(C)nn1C [Table 1-6] | 100% | – | 100% | 100%
CCCc1nn(C)c(/C(=C\OC)C(=O)OC)c1C#Cc1cc(C(F)(F)F)cc(C(F)(F)F)c1 [Table 1-15] | 100% | – | 100% | 100%
CO/C=C(/C(=O)OC)c1c(C#Cc2cc(F)cc(Cl)c2)c(C)nn1C [Table 1-7] | 100% | 80% | 100% | 100%
CO/C=C(/C(=O)OC)c1c(C#Cc2cccc(C(F)(F)F)c2)c(C)nn1C [Table 1-2] | 100% | 60% | 100% | –
CCc1nn(C)c(/C(=N\OC)C(=O)OC)c1CON=C(C)c1ccc(C(F)(F)F)cc1 [Table 3-73] | – | 100% | – | –
CCn1nc(C)c(C#Cc2cc(C(F)(F)F)cc(C(F)(F)F)c2)c1/C(=C/OC)C(=O)OC [Table 1-22] | 100% | 90% | 100% | 100%
CO/C=C(/C(=O)OC)c1c(OCc2cc(C(F)(F)F)cc(C(F)(F)F)c2)c(C)nn1C [Table 2-1] | 100% | 87% | 100% | 100%
CO/C=C(/C(=O)OC)c1c(C#Cc2ccc(Oc3cc(C(F)(F)F)cc(C(F)(F)F)c3)cc2)c(C)nn1C [Table 1-11] | 100% | 100% | 100% | 100%
CCc1nn(CC)c(/C(=C\OC)C(=O)OC)c1C#Cc1cc(C(F)(F)F)cc(C(F)(F)F)c1 [Table 1-28] | 100% | – | 100% | 100%
CO/C=C(/C(=O)OC)c1c(CON=C(C)c2ccc(OC(F)(F)F)cc2)c(C)nn1C [Table 3-101] | 100% | 100% | 100% | –
CCCc1nn(C)c(/C(=C/OC)C(=O)OC)c1C#Cc1cc(C(F)(F)F)cc(C(F)(F)F)c1 [Table 1-16] | 100% | – | 100% | 100%
COC=C(C(=O)OC)c1c(C#Cc2ccc(C(F)(F)F)cc2)c(C)nn1C [Table 1-3, Methyl α-{1,3-dimethyl-4-(4-trifluoromethylphenylethynyl)-5-pyrazole}-β-methoxyacrylate] | 100% | 80% | 100% | 100%
CO/C=C(/C(=O)OC)c1c(C#Cc2ccc(Oc3ccc(C(F)(F)F)cn3)cc2)c(C)nn1C [Table 1-13] | 100% | 100% | 100% | –
CCc1nn(C)c(/C(=C\OC)C(=O)OC)c1C#Cc1cc(C(F)(F)F)cc(C(F)(F)F)c1 [Table 1-14] | 100% | 74% | 100% | 100%
CO/C=C(/C(=O)OC)c1c(C#Cc2cc(C(F)(F)F)cc(C(F)(F)F)c2)c(-c2ccccc2)nn1C [Table 1-19] | 100% | – | 100% | 100%
